The target in one assay is S. epidermidis agr-I (Staphylococcus epidermidis, UniProt Q5HMY3). The assay is described as follows: cell-based. In kind it is cell-based. Conditions: fluorescent reporter strain; peptides tested at 1000, 50, 2.5, 0.125 nM or in dose-response. As to the method: (§1) Peptides were evaluated for the ability to interfere with agr-mediated quorum sensing in S. aureus (AH1677, AH430, AH1747, and AH1872 for agr-I–IV, respectively) ([40]) using reporter strains expressing yellow fluorescent protein (YFP) upon agr activation. Interference with agr-mediated quorum sensing in S. epidermidis (AH3408, AH3623, and AH3409 for agr-I–III, respectively) ([45]), and S. lugdunensis (AH4031 for agr-I) ([37]) was evaluated using reporter strains expressing superfolder green fluorescent protein (sGFP) upon agr activation. Overnight cultures of the reporter strains were grown in TSB medium containing chloramphenicol (CAM, 10 μg/mL for S. aureus) or erythromycin (ERM, 10 μg/mL of S. epidermidis and S. lugdunensis) and diluted 1:100 in fresh TSB medium containing the same antibiotic. Assays were performed in sterile black 96-well plates with a clear bottom. […] DMSO stock solutions of peptides (1 mM) were diluted in TSB media and added (15 μL) in technical triplicate to the 96-well plate, followed by diluted bacterial overnight cultures (135 μL). […] Wells containing 150 μL TSB medium were used to measure background fluorescence. The 96-well plates were incubated in a humidified incubator at 37°C shaking at 1,000 rpm for 22–24 h and fluorescence (for GFP: excitation 479 nm, emission 520 nm; for YFP: excitation 500 nm, emission 541 nm; automatic gain), and OD600 values were subsequently measured using a plate reader. Background fluorescence was subtracted from all wells and further normalized to the corresponding OD600 value of the respective wells. The average fluorescence of control wells was used as a relative measure for 100% activation of the agr-circuit, and bar graphs were generated using GraphPad Prism 10.4 software. All assays were performed in at least a biological duplicate.
Chain of S. epidermidis agr-I (Q5HMY3 entry or part of it): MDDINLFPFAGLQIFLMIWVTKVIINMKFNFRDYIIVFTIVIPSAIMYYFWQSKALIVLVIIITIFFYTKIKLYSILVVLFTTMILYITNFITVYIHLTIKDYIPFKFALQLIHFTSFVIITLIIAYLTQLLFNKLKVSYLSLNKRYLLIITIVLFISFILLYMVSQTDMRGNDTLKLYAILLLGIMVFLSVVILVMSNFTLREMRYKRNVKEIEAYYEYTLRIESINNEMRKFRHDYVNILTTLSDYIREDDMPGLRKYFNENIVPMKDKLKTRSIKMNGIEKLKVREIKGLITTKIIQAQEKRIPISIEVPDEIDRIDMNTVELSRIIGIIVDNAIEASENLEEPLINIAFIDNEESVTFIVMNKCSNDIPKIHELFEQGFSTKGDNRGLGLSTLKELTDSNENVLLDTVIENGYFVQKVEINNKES
(§2) Overnight cultures of the reporter strains were grown in TSB medium containing chloramphenicol (CAM, 10 μg/mL for S. aureus) or erythromycin (ERM, 10 μg/mL of S. epidermidis and S. lugdunensis) and diluted 1:100 in fresh TSB medium containing the same antibiotic. Assays were performed in sterile black 96-well plates with clear bottoms. Peptide solutions (15 μL) in 1:5 serial dilutions from DMSO stock solutions (1 mM) in TSB medium were added to the 96-well plate in technical duplicate followed by diluted bacterial overnight cultures (135 μL). […] Wells containing 150 μL TSB medium were used to measure background fluorescence. The 96-well plates were incubated in a humidified incubator at 37°C shaking at 1,000 rpm for 22–24 h and fluorescence (for GFP: excitation 479 nm, emission 520 nm; for YFP: excitation 500 nm, emission 541 nm; automatic gain), and OD600 values were subsequently measured using a plate reader. Background fluorescence was subtracted from all wells and further normalized to the corresponding OD600 value of the respective wells. The average fluorescence of control wells was used as a relative measure for 100% activation of the agr-circuit. Relative agr activity was plotted to obtain IC50 values by non-linear regression with variable slope using GraphPad Prism 10.4 software. All assays were performed in biological triplicate.

For a further assay, the target named is SA AgrC-II (Staphylococcus aureus, UniProt O33587). As to conditions: 100 nM cognate AIP; ± SEM; -b = no inhibition recorded at the highest AIP concentration tested; determined previously; ref (1); read-out: IC50, SA AgrC-II, b-lactamase assay; cited from earlier work.
Chain of SA AgrC-II (O33587 entry or part of it): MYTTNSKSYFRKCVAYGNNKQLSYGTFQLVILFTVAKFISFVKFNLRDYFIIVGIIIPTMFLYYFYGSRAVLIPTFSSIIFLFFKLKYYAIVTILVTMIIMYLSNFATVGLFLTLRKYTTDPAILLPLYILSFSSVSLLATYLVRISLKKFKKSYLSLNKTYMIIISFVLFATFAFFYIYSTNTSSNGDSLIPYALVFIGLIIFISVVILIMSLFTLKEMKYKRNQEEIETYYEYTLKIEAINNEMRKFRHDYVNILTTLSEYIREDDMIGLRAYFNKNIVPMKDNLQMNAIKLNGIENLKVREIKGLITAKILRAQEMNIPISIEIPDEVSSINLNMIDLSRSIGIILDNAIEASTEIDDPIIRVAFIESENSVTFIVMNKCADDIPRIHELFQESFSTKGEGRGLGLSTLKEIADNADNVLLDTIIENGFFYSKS
The target in a further assay is SA AgrC-IV (Staphylococcus aureus, UniProt Q309Z2). Conditions: 100 nM cognate AIP; ± SEM; -b = no inhibition recorded at the highest AIP concentration tested; determined previously; ref (1); read-out: IC50, SA AgrC-IV, b-lactamase assay; cited from earlier work.
Chain of SA AgrC-IV (Q309Z2 entry or part of it): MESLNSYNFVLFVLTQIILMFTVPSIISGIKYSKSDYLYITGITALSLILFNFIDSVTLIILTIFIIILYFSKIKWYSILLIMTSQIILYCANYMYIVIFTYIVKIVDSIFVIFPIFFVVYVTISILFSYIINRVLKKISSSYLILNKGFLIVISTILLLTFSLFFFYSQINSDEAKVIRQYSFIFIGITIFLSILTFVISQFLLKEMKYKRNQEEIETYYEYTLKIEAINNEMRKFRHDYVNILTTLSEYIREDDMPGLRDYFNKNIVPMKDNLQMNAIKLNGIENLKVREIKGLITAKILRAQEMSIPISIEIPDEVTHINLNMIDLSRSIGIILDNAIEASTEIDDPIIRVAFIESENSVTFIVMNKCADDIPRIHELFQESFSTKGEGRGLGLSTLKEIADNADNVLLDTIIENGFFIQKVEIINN
A further assay deals with S. lugdunensis agr-I (Staphylococcus lugdunensis, UniProt Q8VSW5). The assay is described as follows: cell-based. Conditions: fluorescent reporter strain; peptides tested at 1000, 50, 2.5, 0.125 nM or in dose-response. As to the method:
as §1, with “μL). Control wells for 100% agr activity were wells replacing the peptide solution with TSB medium (15 μL).” for “μL).”
(§3) Overnight cultures of the reporter strains were grown in TSB medium containing chloramphenicol (CAM, 10 μg/mL for S. aureus) or erythromycin (ERM, 10 μg/mL of S. epidermidis and S. lugdunensis) and diluted 1:100 in fresh TSB medium containing the same antibiotic. Assays were performed in sterile black 96-well plates with clear bottoms. Peptide solutions (15 μL) in 1:5 serial dilutions from DMSO stock solutions (1 mM) in TSB medium were added to the 96-well plate in technical duplicate followed by diluted bacterial overnight cultures (135 μL). Control wells for 100% agr activity were wells replacing the peptide solution with TSB medium (15 μL). Wells containing 150 μL TSB medium were used to measure background fluorescence. The 96-well plates were incubated in a humidified incubator at 37°C shaking at 1,000 rpm for 22–24 h and fluorescence (for GFP: excitation 479 nm, emission 520 nm; for YFP: excitation 500 nm, emission 541 nm; automatic gain), and OD600 values were subsequently measured using a plate reader. Background fluorescence was subtracted from all wells and further normalized to the corresponding OD600 value of the respective wells. The average fluorescence of control wells was used as a relative measure for 100% activation of the agr-circuit. Relative agr activity was plotted to obtain IC50 values by non-linear regression with variable slope using GraphPad Prism 10.4 software. All assays were performed in biological triplicate.

A further assay has as its target S. aureus agr-III (Staphylococcus aureus, UniProt O33590). The assay is described as follows: cell-based. As to conditions: fluorescent reporter strain; peptides tested at 1000, 50, 2.5, 0.125 nM or in dose-response. As to the method: as §1, with “μL). Control wells for 100% agr activity were wells replacing the peptide solution with TSB medium (15 μL).” for “μL).”
as §3

The target of another assay is S. aureus agr-II (Staphylococcus aureus, UniProt O33587). The assay is described as follows: cell-based. Conditions: fluorescent reporter strain; peptides tested at 1000, 50, 2.5, 0.125 nM or in dose-response. The protocol:
as §1, with “μL). Control wells for 100% agr activity were wells replacing the peptide solution with TSB medium (15 μL).” for “μL).”
as §3

In another assay the target is S. epidermidis agr-II (Staphylococcus epidermidis, UniProt Q8VSX5). The assay is described as follows: cell-based. The assay is classed as cell-based. As to conditions: fluorescent reporter strain; peptides tested at 1000, 50, 2.5, 0.125 nM or in dose-response. An outline of the steps:
(§4)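 Fluorescence of the agr-driven P3 reporter, read after 22–24 h of growth with peptide at 37°C, was corrected for medium background and divided by OD600. Activity is given relative to wells without peptide, and IC50 values were fitted by non-linear regression with variable slope.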

For the next assay, the target named is S. aureus agr-IV (Staphylococcus aureus, UniProt Q309Z2). The assay is described as follows: cell-based. The assay is classed as cell-based. As to conditions: fluorescent reporter strain; peptides tested at 1000, 50, 2.5, 0.125 nM or in dose-response. An outline of the steps: as §4
Chain of S. aureus agr-IV (Q309Z2 entry or part of it): as above
The next assay deals with S. epidermidis agr-III (Staphylococcus epidermidis, UniProt Q8VSX2). The assay is described as follows: cell-based. In kind it is cell-based. Conditions: fluorescent reporter strain; peptides tested at 1000, 50, 2.5, 0.125 nM or in dose-response. An outline of the steps:
as §4

A further assay deals with S. aureus agr-I (Staphylococcus aureus, UniProt O07911). The assay is described as follows: Fluorescence reporter assay for agr interference, screening and IC50 (AH1677, P3-YFP). The assay is classed as cell-based. Conditions: fluorescent reporter strain; peptides tested at 1000, 50, 2.5, 0.125 nM or in dose-response. As to the method: as §1, §2
Chain of S. aureus agr-I (O07911 entry or part of it): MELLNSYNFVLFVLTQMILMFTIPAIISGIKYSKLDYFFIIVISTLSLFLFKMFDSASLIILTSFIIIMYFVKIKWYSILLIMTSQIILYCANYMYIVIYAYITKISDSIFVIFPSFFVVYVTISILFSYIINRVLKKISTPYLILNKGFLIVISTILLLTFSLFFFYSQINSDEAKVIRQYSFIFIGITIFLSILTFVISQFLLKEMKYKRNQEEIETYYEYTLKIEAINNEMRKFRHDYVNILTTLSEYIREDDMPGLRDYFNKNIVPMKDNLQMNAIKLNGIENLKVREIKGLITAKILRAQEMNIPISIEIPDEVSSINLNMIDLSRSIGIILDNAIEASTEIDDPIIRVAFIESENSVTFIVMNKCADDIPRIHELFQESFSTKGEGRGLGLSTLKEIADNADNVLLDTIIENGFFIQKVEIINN
For orientation: In a reporter assay the amount or activity of a reporter protein is the signal.

A further assay addresses SA AgrC-III (Staphylococcus aureus, UniProt O33590). As to conditions: 100 nM cognate AIP; ± SEM; -b = no inhibition recorded at the highest AIP concentration tested; determined previously; ref (1); read-out: IC50, SA AgrC-III, b-lactamase assay; cited from earlier work.
Another assay concerns the target SA AgrC-I (Staphylococcus aureus, UniProt O07911). As to conditions: 100 nM cognate AIP; ± SEM; -b = no inhibition recorded at the highest AIP concentration tested; determined previously; ref (1); read-out: IC50, SA AgrC-I, b-lactamase assay; cited from earlier work.

The text below walks through data of PMC12345137 (mBio, 2025).

Chain of S. aureus agr-III (O33590 entry or part of it): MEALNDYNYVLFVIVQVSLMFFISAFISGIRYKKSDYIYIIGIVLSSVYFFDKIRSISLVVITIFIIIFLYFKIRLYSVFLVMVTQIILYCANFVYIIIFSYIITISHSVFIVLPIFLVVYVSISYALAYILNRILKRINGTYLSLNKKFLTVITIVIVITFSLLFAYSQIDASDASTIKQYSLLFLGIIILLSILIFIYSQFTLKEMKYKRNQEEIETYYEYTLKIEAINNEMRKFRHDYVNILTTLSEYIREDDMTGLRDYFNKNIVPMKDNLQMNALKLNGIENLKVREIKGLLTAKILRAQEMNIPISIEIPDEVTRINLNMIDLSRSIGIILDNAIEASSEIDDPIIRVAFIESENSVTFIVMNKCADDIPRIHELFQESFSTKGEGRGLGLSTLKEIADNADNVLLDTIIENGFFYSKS
Chain of S. epidermidis agr-II (Q8VSX5 entry or part of it): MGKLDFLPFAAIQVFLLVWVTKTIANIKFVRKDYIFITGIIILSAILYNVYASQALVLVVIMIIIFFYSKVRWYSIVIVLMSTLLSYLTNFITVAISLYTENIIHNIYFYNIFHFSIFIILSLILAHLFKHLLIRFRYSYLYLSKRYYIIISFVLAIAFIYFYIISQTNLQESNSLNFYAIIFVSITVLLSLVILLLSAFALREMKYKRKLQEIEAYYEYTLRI
Chain of S. aureus agr-II (O33587 entry or part of it): as the sequence (O33587 entry or part of it) above
Chain of S. epidermidis agr-III (Q8VSX2 entry or part of it): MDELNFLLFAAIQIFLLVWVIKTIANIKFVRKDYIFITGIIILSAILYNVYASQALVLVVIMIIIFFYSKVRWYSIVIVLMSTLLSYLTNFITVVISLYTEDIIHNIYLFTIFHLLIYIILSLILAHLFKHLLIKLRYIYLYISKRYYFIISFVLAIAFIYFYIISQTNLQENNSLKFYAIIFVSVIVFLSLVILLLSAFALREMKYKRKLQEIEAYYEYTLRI
Chain of SA AgrC-III (O33590 entry or part of it): as the sequence (O33590 entry or part of it) above
Chain of S. lugdunensis agr-I (Q8VSW5 entry or part of it): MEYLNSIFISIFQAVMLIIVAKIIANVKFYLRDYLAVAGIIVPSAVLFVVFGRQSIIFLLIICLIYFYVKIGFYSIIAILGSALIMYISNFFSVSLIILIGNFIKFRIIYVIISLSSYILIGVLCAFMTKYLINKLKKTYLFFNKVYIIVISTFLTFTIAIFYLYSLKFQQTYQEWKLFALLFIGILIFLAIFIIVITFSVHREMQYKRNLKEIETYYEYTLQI
Chain of SA AgrC-I (O07911 entry or part of it): as the sequence (O07911 entry or part of it) above

Regarding S. chromogenes AIP-I [compound 27], the “QS interaction in words (inhibition / activation), S. epidermidis agr-I” value at S. epidermidis agr-I was “potently inhibited”. For the same substance, the IC50 – broadly, the concentration needed to halve the response being measured – at SA AgrC-II is 200 ± 13 nM; on SA AgrC-IV, 350 ± 85 nM; on SA AgrC-III it was 60 ± 13 nM. In addition, the “QS interaction in words (inhibition / activation), S. lugdunensis agr-I” value on S. lugdunensis agr-I was “only weakly inhibited”. For the same substance, the “QS interaction in words (inhibition / activation), S. aureus agr-III” value on S. aureus agr-III was “potently inhibited”. The “QS interaction in words (inhibition / activation), S. aureus agr-II” value on S. aureus agr-II is reported as “potently inhibited”. At S. epidermidis agr-II, the “QS interaction in words (inhibition / activation), S. epidermidis agr-II” value is on record as “potently inhibited”. For the same substance, the “QS interaction in words (inhibition / activation), S. aureus agr-IV” value at S. aureus agr-IV is recorded as “potently inhibited”. In addition, on S. epidermidis agr-III, the “QS interaction in words (inhibition / activation), S. epidermidis agr-III” value is “potently inhibited”. The “QS interaction in words (inhibition / activation), S. aureus agr-I” value at S. aureus agr-I is reported as “potently inhibited”.

Take S. hyicus AIP-I [compound 26]: the “QS interaction in words (inhibition / activation), S. epidermidis agr-I” value at S. epidermidis agr-I is “potently inhibited”. The IC50 was 350 ± 90 nM on SA AgrC-II, 180 ± 33 nM at SA AgrC-IV and 4 ± 0.8 nM at SA AgrC-III. For the same substance, at S. lugdunensis agr-I, the “QS interaction in words (inhibition / activation), S. lugdunensis agr-I” value is listed as “only weakly inhibited”. For the same substance, the “QS interaction in words (inhibition / activation), S. aureus agr-III” value on S. aureus agr-III is given as “potently inhibited”. Moreover, at S. aureus agr-II, the “QS interaction in words (inhibition / activation), S. aureus agr-II” value was “potently inhibited”. Further, the “QS interaction in words (inhibition / activation), S. epidermidis agr-II” value on S. epidermidis agr-II is on record as “potently inhibited”. For the same substance, the “QS interaction in words (inhibition / activation), S. aureus agr-IV” value on S. aureus agr-IV is “potently inhibited”. In addition, the “QS interaction in words (inhibition / activation), S. epidermidis agr-III” value on S. epidermidis agr-III is on record as “potently inhibited”. Further, the “QS interaction in words (inhibition / activation), S. aureus agr-I” value at S. aureus agr-I is “potently inhibited”.

For the substance “S. lugdunensis AIP-II (DMCNGYF; not fully specified; cyclic: thiolactone between Cys3 side-chain thiol and C-terminal Phe7 carboxyl; free N-terminus) [compound 9]”, the IC50 with SA AgrC-I was above 1000 nM.

On to “S. saprophyticus AIP-I (INPCFGYT; not fully specified; cyclic: thiolactone between Cys4 side-chain thiol and C-terminal Thr8 carboxyl; free N-terminus) [compound 19]”, for which the IC50 with SA AgrC-I is 360 ± 30 nM.

Consider S. simulans AIP-II P4A [compound 39], for which the “QS interaction in words (inhibition / activation), S. aureus agr-III” value at S. aureus agr-III is reported as “activator”. On S. aureus agr-IV, the “QS interaction in words (inhibition / activation), S. aureus agr-IV” value is “activator”.
